# In PubChem BioAssay AID330 (DTP/NCI, 2004):
# Where “and” joins values, the source holds several entries; their conditions need not be identical. Identical values can stand only once. Inconclusive results and toxic doses are left out.
# Test system: P388 leukemia ip, CD2F1 mice, survival T/C
# Assay: NCI In Vivo Anticancer Drug Screen. Data for tumor model P388 Leukemia (intraperitoneal) in CD2F1 (CDF1) mice
# Conditions: endpoint: median survival time, higher = longer survival
# Procedure, shortened: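 Mice carrying the transplanted tumor received test compound or vehicle. Survival was recorded in each group, and the value is the treated-group measurement divided by that of the vehicle-treated control group.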
# [1] = dose: 50.0 mg/kg/injection, schedule: Q01DX005 (ip), vehicle: Klucel (hydroxypropylcellulose) (HPC)
# [2] = dose: 100.0 mg/kg/injection, schedule: Q01DX005 (ip), vehicle: Klucel (hydroxypropylcellulose) (HPC)
# [3] = dose: 200.0 mg/kg/injection, schedule: Q01DX005 (ip), vehicle: Klucel (hydroxypropylcellulose) (HPC)
# [4] = dose: 50.0 mg/kg/injection, schedule: Q04DX003 (ip), vehicle: saline with Tween-80
# [5] = dose: 100.0 mg/kg/injection, schedule: Q01DX009 (ip), vehicle: saline with Tween-80
# [6] = dose: 100.0 mg/kg/injection, schedule: Q04DX003 (ip), vehicle: saline with Tween-80
# [7] = dose: 200.0 mg/kg/injection, schedule: Q01DX009 (ip), vehicle: saline with Tween-80
# [8] = dose: 200.0 mg/kg/injection, schedule: Q04DX003 (ip), vehicle: saline with Tween-80
# [9] = dose: 60.0 mg/kg/injection, schedule: Q01DX005 (ip), vehicle: saline with Tween-80
# [10] = dose: 120.0 mg/kg/injection, schedule: Q01DX005 (ip), vehicle: saline with Tween-80
# [11] = dose: 240.0 mg/kg/injection, schedule: Q01DX005 (ip), vehicle: saline with Tween-80
# [12] = dose: 400.0 mg/kg/injection, schedule: Q04DX003 (ip), vehicle: saline with Tween-80
# [13] = dose: 25.0 mg/kg/injection, schedule: Q01DX009 (ip), vehicle: Klucel (hydroxypropylcellulose) (HPC)
# [14] = dose: 50.0 mg/kg/injection, schedule: Q01DX009 (ip), vehicle: Klucel (hydroxypropylcellulose) (HPC)
# [15] = dose: 100.0 mg/kg/injection, schedule: Q01DX009 (ip), vehicle: Klucel (hydroxypropylcellulose) (HPC)
# [16] = dose: 25.0 mg/kg/injection, schedule: Q04DX003 (ip), vehicle: saline with Tween-80
# [17] = dose: 50.0 mg/kg/injection, schedule: Q01DX009 (ip), vehicle: saline with Tween-80
# [18] = dose: 12.5 mg/kg/injection, schedule: Q01DX009 (ip), vehicle: saline with Tween-80
# [19] = dose: 25.0 mg/kg/injection, schedule: Q01DX009 (ip), vehicle: saline with Tween-80
# [20] = dose: 50.0 mg/kg/injection, schedule: Q01DX009 (ip), vehicle: saline
# [21] = dose: 100.0 mg/kg/injection, schedule: Q01DX009 (ip), vehicle: saline
# [22] = dose: 200.0 mg/kg/injection, schedule: Q01DX009 (ip), vehicle: saline
smiles,measurement,setting,value
CC(=O)NNC(=O)c1ccc2ccccc2n1,T/C,"dose: 50.0 mg/kg/injection, schedule: Q01DX009 (ip), vehicle: saline sonified",100 % of control
same,T/C,"dose: 100.0 mg/kg/injection, schedule: Q01DX009 (ip), vehicle: saline sonified",104 % of control
O=C1/C(=C/N2CCOCC2)CCc2nc(-c3ccccc3)sc21,T/C,[1],109 % of control
same,T/C,[2],100 % of control
same,T/C,[3],100 % of control
CC(=O)OCC(=O)[C@@]1(O)CC[C@H]2[C@@H]3C[C@H](C)C4=CC(=O)C=C[C@]4(C)[C@@]3(F)[C@@H](O)C[C@@]21C,T/C,[4],109 % of control
same,T/C,[5],100 % of control
same,T/C,[6],118 % of control
same,T/C,[7],90 % of control
same,T/C,[8],118 % of control
CC1(C)CC2(CC(C)(C)NC(=O)N2)NC(=O)N1,T/C,[1],105 % of control
same,T/C,[2],92 % of control
same,T/C,[3],100 % of control
CCc1cc(C)cc(NC(=O)OC2CCCCC2C)c1 (configuration not stated),T/C,[9],102 % of control
same,T/C,[10],112 % of control
same,T/C,[11],111 % of control
Cc1ncccc1[N+](=O)[O-],T/C,"dose: 12.5 mg/kg/injection, schedule: Q01DX009 (ip), vehicle: saline + Tween-80 + alcohol",100 % of control
same,T/C,"dose: 25.0 mg/kg/injection, schedule: Q01DX009 (ip), vehicle: saline + Tween-80 + alcohol",100 % of control
same,T/C,"dose: 50.0 mg/kg/injection, schedule: Q01DX009 (ip), vehicle: saline + Tween-80 + alcohol",106 % of control and 93 % of control
Cc1ccc(CNc2cccnc2)cc1,T/C,[6],104 % of control
same,T/C,[8],95 % of control
same,T/C,[12],90 % of control
O=C1c2ccccc2NC1c1ccc2ccccc2n1 (configuration not stated),T/C,[13],94 % of control
same,T/C,[14],93 % of control
same,T/C,[15],86 % of control
Nc1c[nH]c2ccccc2c1=O,T/C,[14],104 % of control
same,T/C,[15],101 % of control
same,T/C,"dose: 200.0 mg/kg/injection, schedule: Q01DX009 (ip), vehicle: Klucel (hydroxypropylcellulose) (HPC)",100 % of control
Cc1cc2c(C(C)C)c(O)c(O)cc2c(O)c1-c1c(C)cc2c(C(C)C)c(O)c(O)cc2c1O,T/C,"dose: 12.5 mg/kg/injection, schedule: Q04DX003 (ip), vehicle: saline with Tween-80",95 % of control
same,T/C,[16],100 % of control
same,T/C,[4],104 % of control
C[O+]=c1cccc2sc(-c3ccccc3)ccc1-2,T/C,[1],99 % of control
same,T/C,[2],108 % of control
COc1cc(CC2C(=O)OCC2Cc2cc(OC)c(O)c(C(CO)C(O)c3ccc(O)c(OC)c3)c2)ccc1O (configuration not stated),T/C,"dose: 5.0 mg/kg/injection, schedule: Q01DX009 (ip), vehicle: saline",96 % of control
same,T/C,"dose: 10.0 mg/kg/injection, schedule: Q01DX009 (ip), vehicle: saline",107 % of control
same,T/C,"dose: 20.0 mg/kg/injection, schedule: Q01DX009 (ip), vehicle: saline",105 % of control
same,T/C,"dose: 40.0 mg/kg/injection, schedule: Q01DX009 (ip), vehicle: saline",102 % of control
CC1=CC(=O)C(=Ic2ccccc2)C(=O)O1,T/C,[1],100 % of control
same,T/C,[2],98 % of control
same,T/C,[3],104 % of control
COc1cc2c(c(OC)c1OC)-c1ccc(OC)c(=O)cc1[C@@H](NC=O)CC2,T/C,"dose: 0.25 mg/kg/injection, schedule: Q01DX009 (ip), vehicle: saline",117 % of control
CC(C)C1OC(/C=C/c2ccccc2)OCC1(C)C (configuration not stated),T/C,[16],102 % of control
same,T/C,[4],102 % of control
same,T/C,[6],104 % of control
same,T/C,[8],98 % of control
same,T/C,[12],102 % of control
c1c(-c2cc(C3CC3)on2)noc1C1CC1,T/C,"dose: 60.0 mg/kg/injection, schedule: Q01DX005 (ip), vehicle: saline",100 % of control
same,T/C,"dose: 120.0 mg/kg/injection, schedule: Q01DX005 (ip), vehicle: saline",109 % of control
same,T/C,"dose: 240.0 mg/kg/injection, schedule: Q01DX005 (ip), vehicle: saline",105 % of control
CC(Cc1ccccc1)NC(=O)C1CC2CCCCN2C1C (configuration not stated),T/C,[9],97 % of control
same,T/C,[10],95 % of control
CCc1ccc[n+](CCC2CNc3ccccc32)c1 (configuration not stated),T/C,"dose: 12.5 mg/kg/injection, schedule: Q01DX005 (ip), vehicle: saline",98 % of control
same,T/C,"dose: 25.0 mg/kg/injection, schedule: Q01DX005 (ip), vehicle: saline",100 % of control
same,T/C,"dose: 50.0 mg/kg/injection, schedule: Q01DX005 (ip), vehicle: saline",100 % of control and 110 % of control
CN(S(=O)(=O)CC(F)(F)F)S(=O)(=O)C(F)(F)F,T/C,"dose: 1.56 mg/kg/injection, schedule: Q01DX009 (ip), vehicle: saline",120 % of control
same,T/C,"dose: 2.05 mg/kg/injection, schedule: Q01DX009 (ip), vehicle: saline",93 % of control and 97 % of control
same,T/C,"dose: 3.12 mg/kg/injection, schedule: Q01DX009 (ip), vehicle: saline",101 % of control and 102 % of control
same,T/C,"dose: 4.68 mg/kg/injection, schedule: Q01DX009 (ip), vehicle: saline",102 % of control and 111 % of control
same,T/C,"dose: 6.25 mg/kg/injection, schedule: Q01DX009 (ip), vehicle: saline",100 % of control
N#Cc1c(N)nc2c(c(-c3ccc(Cl)cc3)nn2-c2ccccc2)c1C#N,T/C,"dose: 7.5 mg/kg/injection, schedule: Q01DX005 (ip), vehicle: saline with Tween-80",97 % of control
same,T/C,"dose: 15.0 mg/kg/injection, schedule: Q01DX005 (ip), vehicle: saline with Tween-80",86 % of control and 96 % of control
same,T/C,"dose: 30.0 mg/kg/injection, schedule: Q01DX005 (ip), vehicle: saline with Tween-80",89 % of control and 90 % of control
same,T/C,[10],86 % of control and 91 % of control
same,T/C,[11],93 % of control
O=C(CCCCl)NN=C(c1ccccc1)c1ccccc1,T/C,"dose: 42.0 mg/kg/injection, schedule: Q01DX009 (ip), vehicle: saline with Tween-80",100 % of control
same,T/C,"dose: 84.0 mg/kg/injection, schedule: Q01DX009 (ip), vehicle: saline with Tween-80",97 % of control
same,T/C,"dose: 168.0 mg/kg/injection, schedule: Q01DX009 (ip), vehicle: saline with Tween-80",95 % of control
CC1(C)[S][Sn]2[NH]C1C(=O)[O]2 (configuration not stated),T/C,[1],98 % of control
same,T/C,[2],94 % of control
CCCCOCN(CCc1ccccc1)COCCCC,T/C,[17],118 % of control
same,T/C,[7],152 % of control
CN(C)N=Nc1ccc(S(N)(=O)=O)cc1,T/C,[13],93 % of control
same,T/C,[14],114 % of control
same,T/C,[15],100 % of control
COc1cccc2c1C(=N)c1c(O)c3c(c(O)c1C2=O)CC(O)(C(=O)CO)CC3OC1CC(N2CCOCC2C#N)C(O)C(C)O1 (configuration not stated),T/C,"dose: 0.25 mg/kg/injection, schedule: Q04DX003 (ip), vehicle: saline",117 % of control
same,T/C,"dose: 0.5 mg/kg/injection, schedule: Q04DX003 (ip), vehicle: saline",157 % of control
same,T/C,"dose: 1.0 mg/kg/injection, schedule: Q04DX003 (ip), vehicle: saline",111 % of control and 97 % of control
C/C(=C\C(=O)c1ccc(F)cc1)N1CCN(c2ccc(F)cc2)CC1,T/C,"dose: 50.0 mg/kg/injection, schedule: Q01DX005 (ip), vehicle: other",96 % of control
same,T/C,"dose: 100.0 mg/kg/injection, schedule: Q01DX005 (ip), vehicle: other",93 % of control
Oc1ccc(O)cc1,T/C,[18],106 % of control
same,T/C,[19],113 % of control
same,T/C,[17],122 % of control
same,T/C,[5],150 % of control
NC(=O)c1ccc2c(=O)c(C(=O)O)c[nH]c2c1,T/C,"dose: 6.25 mg/kg/injection, schedule: Q01DX009 (ip), vehicle: saline with Tween-80",92 % of control
same,T/C,[18],95 % of control
same,T/C,[19],94 % of control
COc1ccc(-c2nc(C)[nH]c(=O)c2Cc2c(O)ccc3ccccc23)cc1,T/C,[20],102 % of control
same,T/C,[21],100 % of control
same,T/C,[22],99 % of control
CCCNCC(O)c1cc(C(F)(F)F)nc2c(C(F)(F)F)cccc12 (configuration not stated),T/C,[18],99 % of control
same,T/C,[19],95 % of control
same,T/C,[17],107 % of control
CCSc1nc2c(N)nc(N)nc2[nH]c1=O,T/C,"dose: 100.0 mg/kg/injection, schedule: Q04DX003 (ip), vehicle: Klucel (hydroxypropylcellulose) (HPC)",99 % of control
same,T/C,"dose: 200.0 mg/kg/injection, schedule: Q04DX003 (ip), vehicle: Klucel (hydroxypropylcellulose) (HPC)",86 % of control
O=C(CC(=O)C(F)(F)F)c1cccs1.O=C(CC(=O)C(F)(F)F)c1cccs1.O=C(CC(=O)C(F)(F)F)c1cccs1.[Gd],T/C,[20],96 % of control
same,T/C,[21],96 % of control
same,T/C,[22],99 % of control
